Data on one compound can be found in patent US11786608B2, “Isoquinolinyl triazolone complexes” (Takeda Pharmaceutical Company Limited, priority 2016, dated 2023).

The target in the test is human BTK (Homo sapiens (Human), UniProt Q06187). Nature of the test: BTK inhibition assay (phosphorylation of 5-FAM-labeled substrate, Caliper LC-3000). It counts as biochemical. Conditions: residues 382 to 659 of human BTK; 60 minutes at room temperature. The source says:
The activity of compound of Formula 1, stereoisomer thereof, or tautomers of the compound as Formula 1 or stereoisomer thereof, as BTK inhibitors may be determined by a variety of methods, including in vitro and in vivo methods. The following in vitro assay measures a test compound's ability to inhibit BTK-mediated phosphorylation of a FAM-labeled substrate, 5-FAM-[…]-NH2.
Purified BTK may be obtained as follows (Clone SBVC-1603_9P is used). A cDNA sequence encoding residues 382 to 659 of human BTK is cloned into the vector pSXB4. This construct engineers an in-frame translational fusion with the Glutathione-S-Transferase (GST) protein for use in affinity purification. The fusion protein derived from this construct contains a protease recognition sequence to liberate the BTK from the GST affinity tag. High-titer baculoviral stocks, generated using the Bac-to-Bac® system (Invitrogen), are used to express the recombinant protein in Spodoptera frugiperda Sf9 cells in 10 L Wave bags. Recombinant proteins are isolated from cellular extracts by passage over Glutathione Sepharose 4B (GE Healthcare) and the BTK moiety is released from the GST affinity tag by treatment with PreScission protease. […] The purity of the fractions is assessed by SDS PAGE and the peak protein fractions are pooled and concentrated using Amicon Ultra-15 Centrifugal Filter Devices (Millipore).

human BTK, sequence (Q06187 382-659): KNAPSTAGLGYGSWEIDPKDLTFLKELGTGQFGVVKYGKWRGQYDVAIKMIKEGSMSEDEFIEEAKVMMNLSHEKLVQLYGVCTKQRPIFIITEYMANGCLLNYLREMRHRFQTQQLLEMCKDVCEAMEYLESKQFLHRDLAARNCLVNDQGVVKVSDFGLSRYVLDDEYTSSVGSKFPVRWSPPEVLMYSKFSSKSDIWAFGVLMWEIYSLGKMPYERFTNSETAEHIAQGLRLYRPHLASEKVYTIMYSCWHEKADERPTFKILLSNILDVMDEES

`C=CC(=O)N1CC[C@H](Oc2nc(-c3n[nH]c(=O)[nH]3)cc3ccccc23)C1` [Example 1, (S)-3-(1-((1-acryloylpyrrolidin-3-yl)oxy)isoquinolin-3-yl)-1H-1,2,4-triazol-5(4H)-one]: the “BTK Inhibition (pIC50)” value is reported as over 8.7.
